From paper doi:10.1101/2023.07.29.547699, “Bacterial pathogens deliver water/solute-permeable channels as a virulence strategy” (bioRxiv, 2023)

Tests used:
[1] = target: T1, DspE (Erwinia amylovora, UniProt O54581); experiment: two-electrode voltage clamp, Xenopus oocytes; type: cell-based
T1 construct: full-length untagged ORF in pGH19, cRNA-injected Xenopus laevis oocytes; printed UniProt entry is strain Ea321, strain of the oocyte ORF not restated

[2] = target: T2, AvrE (Pseudomonas syringae group genomosp. 3, UniProt Q887C9); experiment: fluorescent dye uptake, Xenopus oocytes; type: cell-based; conditions: permeation through channel; ND96 bath saline with fluorescein, 20 h
T2 construct: full-length untagged ORF in pGH19, cRNA-injected Xenopus laevis oocytes

[3] = target: T1, DspE; experiment: fluorescent dye uptake, Xenopus oocytes; type: cell-based; conditions: permeation through channel; ND96 bath saline with fluorescein, 20 h
[4] = target: T3, DspE (MBP-DspE) (Erwinia amylovora, UniProt O54581); experiment: liposome carboxyfluorescein release inhibition; type: biochemical; conditions: 20 mM HEPES, 300 mM NaCl, pH 8.0; 0.05-0.15 μM DspE; soybean lipid liposomes; channel blocker
T3 construct: full-length, N-terminal MBP-His8-PPX-FLAG tag kept; E. coli BL21(DE3); reconstituted in soybean liposomes; printed UniProt entry is strain Ea321, cloned gene from Ea273

[5] = target: T2, AvrE; experiment: two-electrode voltage clamp, Xenopus oocytes; type: cell-based; conditions: 50 mV test pulse; ND96 saline, pH 7.5; inhibitor in bath saline

T1 sequence (O54581 whole entry): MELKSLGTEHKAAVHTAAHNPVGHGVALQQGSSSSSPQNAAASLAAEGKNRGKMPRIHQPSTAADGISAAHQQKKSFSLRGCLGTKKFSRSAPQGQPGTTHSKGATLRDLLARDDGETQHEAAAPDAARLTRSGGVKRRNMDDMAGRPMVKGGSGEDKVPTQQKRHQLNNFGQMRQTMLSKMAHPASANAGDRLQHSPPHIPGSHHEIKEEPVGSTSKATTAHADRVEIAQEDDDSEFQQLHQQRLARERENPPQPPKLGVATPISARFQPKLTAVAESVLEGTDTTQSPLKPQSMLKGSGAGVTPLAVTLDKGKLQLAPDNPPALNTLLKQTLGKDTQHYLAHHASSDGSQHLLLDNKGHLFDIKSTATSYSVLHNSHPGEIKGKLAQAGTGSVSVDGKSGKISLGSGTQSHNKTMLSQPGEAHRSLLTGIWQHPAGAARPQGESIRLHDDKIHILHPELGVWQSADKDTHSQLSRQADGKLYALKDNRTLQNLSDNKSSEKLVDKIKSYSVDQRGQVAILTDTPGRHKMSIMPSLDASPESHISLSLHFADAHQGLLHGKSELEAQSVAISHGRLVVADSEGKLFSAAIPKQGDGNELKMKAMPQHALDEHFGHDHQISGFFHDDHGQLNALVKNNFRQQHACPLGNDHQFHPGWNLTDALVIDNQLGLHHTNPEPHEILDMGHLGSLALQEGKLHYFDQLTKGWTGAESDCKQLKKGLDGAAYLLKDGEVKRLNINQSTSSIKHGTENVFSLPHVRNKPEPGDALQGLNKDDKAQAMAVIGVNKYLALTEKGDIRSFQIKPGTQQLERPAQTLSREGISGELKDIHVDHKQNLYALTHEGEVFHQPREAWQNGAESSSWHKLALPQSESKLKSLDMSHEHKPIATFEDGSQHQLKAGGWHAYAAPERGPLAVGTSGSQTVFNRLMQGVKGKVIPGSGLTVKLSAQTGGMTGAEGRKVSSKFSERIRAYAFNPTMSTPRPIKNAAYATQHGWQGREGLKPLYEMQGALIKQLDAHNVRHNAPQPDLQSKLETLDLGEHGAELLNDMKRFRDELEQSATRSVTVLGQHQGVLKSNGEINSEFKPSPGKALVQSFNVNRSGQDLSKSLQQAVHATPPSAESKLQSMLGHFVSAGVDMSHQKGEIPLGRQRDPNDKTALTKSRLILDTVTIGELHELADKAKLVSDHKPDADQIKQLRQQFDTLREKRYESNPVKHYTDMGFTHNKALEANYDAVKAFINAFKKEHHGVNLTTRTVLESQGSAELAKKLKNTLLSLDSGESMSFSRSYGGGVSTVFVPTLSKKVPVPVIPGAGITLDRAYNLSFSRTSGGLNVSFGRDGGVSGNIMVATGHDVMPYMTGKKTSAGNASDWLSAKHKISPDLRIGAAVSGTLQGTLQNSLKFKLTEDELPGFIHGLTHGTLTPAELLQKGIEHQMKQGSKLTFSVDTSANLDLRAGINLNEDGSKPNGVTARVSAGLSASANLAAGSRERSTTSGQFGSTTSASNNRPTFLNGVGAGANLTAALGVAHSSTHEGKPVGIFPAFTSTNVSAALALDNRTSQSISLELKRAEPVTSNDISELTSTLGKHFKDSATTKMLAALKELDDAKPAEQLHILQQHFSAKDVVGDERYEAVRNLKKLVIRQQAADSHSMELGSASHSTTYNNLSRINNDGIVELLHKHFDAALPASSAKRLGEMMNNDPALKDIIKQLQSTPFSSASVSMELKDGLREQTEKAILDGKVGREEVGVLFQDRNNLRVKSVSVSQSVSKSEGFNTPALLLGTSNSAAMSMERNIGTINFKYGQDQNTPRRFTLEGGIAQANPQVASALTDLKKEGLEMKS
T2 sequence (Q887C9 whole entry): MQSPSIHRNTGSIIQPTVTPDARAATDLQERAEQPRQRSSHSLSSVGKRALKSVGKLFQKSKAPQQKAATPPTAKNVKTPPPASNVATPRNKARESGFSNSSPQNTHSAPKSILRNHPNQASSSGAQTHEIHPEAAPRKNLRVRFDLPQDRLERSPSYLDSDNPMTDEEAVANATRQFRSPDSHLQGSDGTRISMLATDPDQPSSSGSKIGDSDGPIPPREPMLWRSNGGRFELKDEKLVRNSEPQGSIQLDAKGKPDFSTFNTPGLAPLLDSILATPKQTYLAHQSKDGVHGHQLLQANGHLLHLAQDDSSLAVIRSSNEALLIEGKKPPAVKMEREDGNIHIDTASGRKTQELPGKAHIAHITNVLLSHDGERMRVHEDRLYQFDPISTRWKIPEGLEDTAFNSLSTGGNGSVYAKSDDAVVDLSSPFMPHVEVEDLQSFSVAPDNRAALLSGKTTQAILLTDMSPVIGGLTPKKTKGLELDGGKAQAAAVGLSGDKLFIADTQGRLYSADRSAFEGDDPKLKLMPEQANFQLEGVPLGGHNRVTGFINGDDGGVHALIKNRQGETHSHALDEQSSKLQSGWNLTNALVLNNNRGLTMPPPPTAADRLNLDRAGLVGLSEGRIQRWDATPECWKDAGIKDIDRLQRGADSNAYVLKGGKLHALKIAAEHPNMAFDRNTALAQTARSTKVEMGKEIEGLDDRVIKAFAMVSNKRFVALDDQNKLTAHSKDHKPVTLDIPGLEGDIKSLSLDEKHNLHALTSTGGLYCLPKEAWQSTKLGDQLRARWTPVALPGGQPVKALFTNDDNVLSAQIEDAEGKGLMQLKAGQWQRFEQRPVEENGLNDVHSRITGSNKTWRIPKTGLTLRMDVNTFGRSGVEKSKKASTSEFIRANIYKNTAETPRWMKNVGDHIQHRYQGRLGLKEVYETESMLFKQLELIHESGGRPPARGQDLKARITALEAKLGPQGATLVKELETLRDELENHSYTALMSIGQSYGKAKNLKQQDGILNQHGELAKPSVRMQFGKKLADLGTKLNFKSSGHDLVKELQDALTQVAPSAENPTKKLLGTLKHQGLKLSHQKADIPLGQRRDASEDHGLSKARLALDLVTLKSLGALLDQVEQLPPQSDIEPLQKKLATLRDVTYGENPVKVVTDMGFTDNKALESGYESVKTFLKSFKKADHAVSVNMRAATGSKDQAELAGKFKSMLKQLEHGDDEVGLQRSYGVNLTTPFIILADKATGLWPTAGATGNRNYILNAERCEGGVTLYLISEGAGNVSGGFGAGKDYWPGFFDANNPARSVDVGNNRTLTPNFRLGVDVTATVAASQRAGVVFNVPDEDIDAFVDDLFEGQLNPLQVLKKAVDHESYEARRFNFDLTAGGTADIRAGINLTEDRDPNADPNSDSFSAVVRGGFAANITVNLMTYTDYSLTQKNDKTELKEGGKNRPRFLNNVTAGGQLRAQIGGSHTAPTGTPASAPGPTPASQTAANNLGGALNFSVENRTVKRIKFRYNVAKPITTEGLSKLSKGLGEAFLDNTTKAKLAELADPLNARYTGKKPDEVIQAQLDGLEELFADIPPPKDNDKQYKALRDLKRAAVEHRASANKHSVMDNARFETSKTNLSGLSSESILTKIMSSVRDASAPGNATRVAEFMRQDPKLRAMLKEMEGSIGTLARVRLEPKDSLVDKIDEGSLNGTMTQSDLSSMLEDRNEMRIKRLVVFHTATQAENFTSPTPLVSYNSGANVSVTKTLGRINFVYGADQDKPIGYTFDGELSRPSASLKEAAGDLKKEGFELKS

Question: With NCCNC(=O)CCN(CCC(=O)NCCN)CCN(CCC(=O)NCCN)CCC(=O)NCCN [G0, PAMAM G0] as the molecule, how does the inhibition at 10000 µM ([1]; read-out: % inhibition at 10 mM) read?
Answer: 68%

Question: Which results are given for O=C1OC2(c3ccc(O)cc3Oc3cc(O)ccc32)c2ccccc21 [fluorescein]?
Answer: fluorescent dye uptake, Xenopus oocytes [2]: fluorescein entered oocytes expressing DspE or AvrE, whereas eGFP could not; fluorescent dye uptake, Xenopus oocytes [3]: fluorescein entered oocytes expressing DspE or AvrE, whereas eGFP could not

Question: What does the source list for PAMAM G1?
Answer: IC50 [4]: 31 µM; % inhibition at 10 mM [5]: 93%; % inhibition at 10 mM ([1]; 50 mV test pulse, ND96 saline, pH 7.5, inhibitor in bath saline): 71%
